Entries after “also recorded” stand apart in the source; their conditions may differ.
Experiments:
SH-SY5Y cells [1] = assay: Real-time qPCR of mitochondrial rRNA and humanin transcripts; assay type: cell-based, human; settings: IMT1 co-treated with HN for 24 h, dose-dependent
Protocol: For real-time qPCR, total RNA was extracted using TRIzol reagent (Thermo Fisher Scientific). cDNA was synthesized using a cDNA synthesis kit (Bioneer Corporation), according to the manufacturer's protocol. The mRNA levels were analyzed in a LightCycler 96 (Roche, Basel, Switzerland) using SYBR Green I master mix and SensiFAST™ SYBR® No-ROX Kit (Bioline, Paris, France). B2M (beta-2-microglobulin) gene expression was used to normalize gene expression data. The primer sequences used in this experiment are in Table S2.

[2] = test system: differentiated PC12 cells; assay: Pathway inhibitors on HN effects in MPP+-challenged differentiated PC12 cells; assay type: cell-based, rat; settings: for neuroprotective effect of HN against MPP+ neurotoxicity (MTT viability): inhibitor 2 h before HN 10 μM, then MPP+ 1 mM 24 h, MK2206 1 μM, wortmannin 1 μM, U0126 10 μM
Protocol: For neuronal differentiation of PC12 cells, the cells were grown in DMEM containing 1.5% horse serum, 1.5% FBS, 1% P/S, and 100 ng/mL nerve growth factor (NGF, Thermo Fisher Scientific) every 2 days. PC12 cells were differentiated for 7 days and used for subsequent experiments.
Mouse brain tissue samples and cells were homogenized in radioimmunoprecipitation assay (RIPA) buffer (Cell Signaling, Danvers, MA, USA) in the presence of a protease and phosphatase inhibitor cocktail (Thermo Fisher Scientific). The samples were sonicated on ice, and the supernatant was collected after centrifugation at 4°C at 10,000 g for 5 min. The protein samples were loaded and separated using Tris-glycine SDS-PAGE. To detect the HN peptide, the proteins were separated into three layers of tricine SDS-PAGE, as previously described. The separated proteins were transferred to nitrocellulose membranes (GenDEPOT, Barker, TX, USA). The membranes were blocked for 0.5 h, followed by incubation with appropriate primary antibodies overnight at 4°C. The primary antibodies used were as follows: anti-tyrosine hydroxylase (Cat # P40101, Pel-Freez Biologicals), anti-HN (Cat # RA19000, Neuromics), anti-β-actin (Cat # GTX109639, GeneTex, Irvine, CA, USA), and anti-GAPDH (Cat # AM4300, Thermo Fisher Scientific). After washing, the membranes were incubated with horseradish peroxidase-labeled secondary antibodies (Cell Signaling Technology) and visualized using enhanced chemiluminescence reagents (DoGen, Seoul, South Korea). The results were analyzed using the ImageJ densitometry system. In order to detect circulating humanin in human plasma samples, proteins were extracted by trichloroacetic acid (TCA) precipitation. Loading of an equal amount of protein was confirmed by Coomassie staining of plasma samples which were depleted of albumin by Minute™ Albumin Depletion Reagent (Invent Biotechnologies, Plymouth, MN, USA).
Following treatment with the aforementioned reagents, the cells were washed and treated with 3-(4,5-dimethylthiazol-2-yl)-2,5-diphenyl-tetrazolium bromide (MTT, Thermo Fisher Scientific). Briefly, the cells were seeded in a 96-well plate at a density of 5 × 10^3 cells/well. After 24 h, a neurotoxin 1-methyl-4-phenylpyridinium (MPP^+) (Sigma-Aldrich) was applied to induce toxicity in neuronal cells. Next, the cells were incubated with MTT for 4 h, and formazan crystals were solubilized using DMSO. Absorbance was measured using a multi-plate reader at a wavelength of 570 nm, and the viability of the cells was recorded as a percentage of the control.

[3] = test system: transgenic mouse model of AD; settings: without altering Aβ production; cited from earlier work
From the text: Humanin is the first peptide representing a novel group of naturally occurring bioactive peptides encoded by the mitochondrial genome, termed MDPs. Since its discovery in 2001 [12], humanin has been proposed as a potential protective peptide for neurological disorders, cardiovascular diseases, and metabolic dysfunction. The central role of humanin in the protective response has been extensively studied in AD [13]. Maftei et al., using affinity mass spectrometry, identified that humanin can directly bind to amyloid β (Aβ), which subsequently disrupts the oligomerization of Aβ [57]. Further ...

[4] = Brain delivery after intranasal FITC-HN; assay type: in vivo, mouse
Protocol: For intranasal HN treatment, the synthetic HN peptide was delivered according to a procedure reported by Capsoni et al. The synthetic HN peptide was diluted in ddH2O to a concentration of 0.1 and 5 mg/kg for mice (total volume of 40 μL) at 37 ℃ with mild stirring. The mice were held firmly in one hand in a supine position with their head at 90°. Synthetic HN was administered in the form of 5-μL drops over 20 min in alternating nostrils every 3 min. After administration, the heads of the mice were held in the same position to prevent loss of the applied solution from the nares.
To stain the mouse brain tissue samples, transcardial perfusion was performed using PBS and 4% paraformaldehyde in PBS. The brain and trigeminal ganglia were removed, post-fixed using 4% paraformaldehyde in PBS, and stored in a 30% sucrose solution at 4 ℃ until they sank. Coronal sections were prepared (thickness: 10 µm) using a sliding microtome. After blocking with 5% BSA, the samples were incubated with the appropriate primary antibody as mentioned above. […] To enhance immune signals in immunohistochemistry, a Vectastain Elite ABC Standard Kit (Vector Laboratories) was used, as per the manufacturer's instructions. The stained sections were scanned using a Pannormic MIDI scanner (3[…], Budapest, Hungary) at the Neuroscience Translational Research Solution Center. Unbiased stereological analyses were performed as previously described. […] Fluorescent images were captured at the Neuroscience Translational Research Solution Center (Busan, South Korea) using an LSM 700 confocal microscope (Zeiss, Jena, Germany). Mitochondrial network morphology was further assessed using the FIJI/ImageJ software as described previously.
A commercially available ELISA kit (MyBioSource, San Diego, CA, USA) was used to measure plasma and brain HN levels. To measure the protein levels of HN, brain homogenates (100 μg protein/well) and 100 μL of plasma samples were loaded onto competitive ELISA plates according to the manufacturer's instructions. The absorbance was measured using a microplate reader (Molecular Devices, Sunnyvale, CA, USA) at a wavelength of 450 nm.

SH-SY5Y cells [5] = assay: FITC-HN immunofluorescence in cells; assay type: cell-based, human
Protocol: For HN treatment, HN was synthesized as per Fmoc-based SPPS at GL Biochem (Shanghai, China). The lyophilized synthesized HN peptide or HN peptide conjugated with fluorescein isothiocyanate (FITC-HN) was dissolved in Dimethyl sulfoxide (DMSO) and incubated at 37 ℃ with mild stirring (100 rpm) for 1 h to prepare a 10 mM stock solution. The stock solutions were kept at -20 ℃ until use.
For staining, the cells were seeded on PDL-coated glass slides and treated as indicated above. The samples were fixed using methanol and permeabilized using 0.1% Triton X-100 in PBS. […] Fluorescent images were captured at the Neuroscience Translational Research Solution Center (Busan, South Korea) using an LSM 700 confocal microscope (Zeiss, Jena, Germany). The mitochondrial network morphology was assessed using the FIJI/ImageJ software as described previously.

[6] = wortmannin 1 μM pre-treatment, HN 10 μM, MPP+ 1 mM

Cc1ccccc1-c1cc(=O)oc2cc(OC(C)C(=O)N(C)C)ccc12 (stereo not shown) [IMT1, reference compound]
humanin transcripts induced by HN peptide (SH-SY5Y cells [1]): markedly attenuated humanin transcripts

NC1(c2ccc(-c3nc4ccn5c(=O)[nH]nc5c4cc3-c3ccccc3)cc2)CCC1 [MK-2206]
neuroprotective effect of HN against MPP+ neurotoxicity (MTT viability) [2]: abolished the neuroprotective effect of HN

N#CC(=C(/N)Sc1ccccc1N)/C(C#N)=C(/N)Sc1ccccc1N [U0126]
neuroprotective effect of HN against MPP+ neurotoxicity (MTT viability) [2]: did not alter cell viability

COC[C@H]1OC(=O)c2coc3c2[C@@]1(C)C1=C(C3=O)[C@@H]2CCC(=O)[C@@]2(C)C[C@H]1OC(C)=O [wortmannin]
neuroprotective effect of HN against MPP+ neurotoxicity (MTT viability) [2]: abolished the neuroprotective effect of HN
induction of intracellular humanin by HN treatment, western blot ([2]; wortmannin 1 μM pre-treatment 1 h, HN 10 μM, 24 h, MPP+-exposed cells): significantly inhibited; also recorded: blocked the induction of HN expression
HN-enhanced mitochondrial mass [2, 6]: significantly blocked the impact of HN on enhancing mitochondrial mass
HN-promoted mitochondrial biogenesis, western blot [2, 6]: significantly blocked

S14G-HN: a highly potent human derivative (MAPRGFSCLLLLTGEIDLPVKRRA; Humanin; UniProt Q8IVG9 1-24, looked up, variant S14G)
total amyloid plaque burden in cerebellum, hippocampus and cortex [3]: significantly reduced the total amyloid plaque burden

fluorescein isothiocyanate-conjugated humanin [FITC-HN]
FITC-HN distribution in trigeminal nerve endoneurium ([4]; cross-sections of trigeminal nerves after intranasal administration, transgenic PD mice): diffuse to punctate in the perineural space of the endoneurium
FITC-HN signal in trigeminal nerve perineurium region ([4]; cross-sections of trigeminal nerves, compared with endoneurium): more prominent FITC-HN signal
duration of widespread brain distribution after intranasal administration ([4]; human α-Syn transgenic PD mice, ELISA of brain regions (CB, OB, ST, HIP, SN, CTX)): up to 1 h
time after intranasal injection at which FITC-HN is detectable in midbrain (VTA, aqueduct) ([4]; human α-Syn-overexpressing transgenic PD mice, fluorescence imaging): ≤ 30 min
FITC-HN localisation in brain parenchyma ([4]; within 30 minutes after intranasal treatment, GFAP staining): found in microvascular endothelial cells surrounded by astrocytic endfeet
intracellular humanin signal (antibody staining) (SH-SY5Y cells [5]; 24 h FITC-HN treatment, untreated cells show weak signal): strong signal of intracellular humanin
intracellular FITC fluorescence signal (SH-SY5Y cells [5]; 24 h after FITC-HN treatment, suggests degradation of the FITC-HN peptide): no detectable fluorescent signal
intracellular FITC fluorescence signal (SH-SY5Y cells [5]; within 30 min of FITC-HN treatment, confocal immunofluorescence): strong intracellular fluorescence signal

— publication PMC10283052, “Intranasal delivery of mitochondrial protein humanin rescues cell death and promotes mitochondrial function in Parkinson's disease” (Theranostics, 2023)
